Numbers after ± are expanded uncertainties.
Details: Crystal; visual observation

Normal melting temperature: 215 ± 1 °C
Compound: c1ccc2cc3ccccc3cc2c1 [anthracene]

— the NIST ThermoML archive (doi:10.1021/je900852t)
